US20040121460A1, “Differentiation of stem cells to pancreatic endocrine cells” (priority 2003, published 2004)
“Also recorded” adds a separate entry of the source.

Experiments:
[1] = system: ES cell-derived insulin-secreting islet clusters; assay: Insulin secretion from ES cell-derived islet clusters, insulin ELISA; assay type: cell-based, murine; conditions: for insulin secretion in response to agonists (secretagogues): in the presence of low concentration (5 mM) of glucose
Protocol: A series of experiments were conducted to measure the kinetics and pharmacology of glucose-dependent insulin release. Insulin secretion was measured in Krebs-Ringer-bicarbonate buffer containing 120 mM NaCl, 5 mM KCl, 2.5 mM CaCl2, 1.1 mM MgCl2, 25 mM NaHCO3 and 0.1% bovine serum albumin at 37° C. Inhibitors of insulin secretion (nifedipine and diazoxide) were added to buffer during preincubation (30 min) and throughout the incubation period. For determination of total cellular insulin content, insulin was extracted from cells with acid ethanol (10% glacial acetic acid in absolute ethanol) overnight at 4° C., followed by cell sonication. Total cellular and secreted insulin was assayed using insulin ELISA kit (ALPCO, Windham, N.H.). Protein concentrations were determined using DC protein assay system (Bio-Rad, Hercules, Calif.).
To determine if the islet clusters utilize physiological glucose-mediated signaling pathways, the effect of several well-characterized agonists and antagonists of insulin secretion were examined. The mechanism by which glucose stimulates insulin secretion in vivo is complex. As outlined in FIG. 3B, transport of glucose into the cell, and its metabolism results in ATP production, an event which, in turn, leads to inhibition of ATP-dependent K^+ channels, cell membrane depolarization, opening of the voltage-dependent Ca^++ channels, and influx of extracellular Ca^++ into the cell. Additionally, intracellular Ca^++ can be elevated by release of Ca^++ from intracellular stores through other mechanisms. Elevation of free intracellular Ca^++ is coupled to multiple phosphorylation events modulated by protein kinase C (PKC) and protein kinase A (PKA) cascades, which ultimately lead to release of insulin from the cell (McClenaghan et al., J Mol. Med., 77:235, 1999).

ES cell cultures = assay: LIF treatment of ES cell cultures at stage 2 (EB formation), immunostaining for EN-1, PDX-1, TuJ1, GFAP; assay type: cell-based
Protocol: FIG. 5 is a set of panels showing the neural and pancreatic differentiation of ES cells. FIG. 1A is a set of digital images showing the cells during the procedure for induction of midbrain dopaminergic neurons from ES cells as previous described (see WO 01/83715, herein incorporated by reference). Briefly, the ES cells were taken through 5 steps or stages. In stage 1 undifferentiated ES cells were cultured for 5 days in the presence of 15% fetal calf serum (FCS) on gelatin coated tissue culture dishes in the presence of LIF (1,400 U/ml). In stage 2 embryoid bodies (Ebs) were generated in the presence of FCS for 4 days in the presence or absence of LIF (1,000 U/ml.). In stage 3, the EBs were plated into ITSFn medium (Okabe et al., Mech. Dev. 59: 89-102, 1996) where over 10 days Nestin+ cells migrated from the cell aggregates. In stage 4 these Nestin+ cells were resuspended and expanded for 4 days in N2 medium containing bFGF, sonic hedgehog (Shh) and fibroblast growth factor-8 (FGF8). In stage 5 the medium was changed into N2 medium without bFGF, Shh or FGF8. These cells differentiated efficiently into neurons and astrocytes over a two week period. Embryoid bodies were generated in the presence (LIF+) or absence (LIF−) of LIF (1000 U/ml) and differentiated. Double-immunostaining for TuJ1/GFAP (upper panels, day 8 in stage 5) and PDX-1/En-1 (lower panels, day 3 in stage 4). LIF treatment in stage 2 (EB formation) increases the neuronal (TuJ1+cells, light grey) and decreases the astrocytic (GFAP+, dark grey) population. […] FIG. 5C is a bar graph showing that the yield of En-1+ and PDX-1+ cells is expressed as a percentage of total cells at stage 4.
The methods disclosed herein include five stages: (1) expansion of ES cells (2) generation of EB (3) selection for CNS precursor cells (4) expansion of pancreatic (versus central nervous system (CNS)) precursor cells, and (5) differentiation of pancreatic endocrine cells (versus differentiation of neuronal cells). Expansion of ES cells and generation of EB was performed as disclosed herein. EB were cultured in DMEM/15% serum (ES medium) with LIF (1000 units (U)/ml) for 4 days with changing medium every 2 day. After 4 days, EBs were transferred to a tissue culture dish cultured in ITS medium containing fibronectin for 10-12 days. EBs which were kept in absence of LIF in stage II were phenotypically different than EB cultured in the presence of LIF in stage II. In stage 1V, ES-derived CNS precursor were cultured in N2 medium in the presence of bFGF (20 ng/ml) and Shh (500 ng/ml) and FGF8 (100 ng/ml) for 4 days and after withdrawal of bFGF/SHH/FGF8, differentiated them for 10-12 day in N2 medium with ascorbic acid. Specifically, EB cultured in the absence of LIF were spread out in stage III. EBs which were treated with LIF maintained a round shape and CNS precursor cells migrated from attaching point of EB in dishes. Therefore, a selection for CNS precursor was accomplished by culturing in the […] of LIF.

[2] = at stage 4, LIF at stage 2 (EB formation)

CC(C)Cn1c(=O)n(C)c(=O)c2[nH]cnc21 [IBMX, 3-isobutil-1-methylxanthine]
insulin secretion in response to agonists (secretagogues) [1]: stimulated insulin secretion

C[N+](C)(C)CCOC(N)=O [carbachol]
insulin secretion in response to agonists (secretagogues) [1]: stimulated insulin secretion

CC1=NS(=O)(=O)c2cc(Cl)ccc2N1 [diazoxide]
insulin secretion in the presence of antagonists (inhibitors) ([1]; in the presence of high glucose concentrations (20 mM)): inhibited insulin secretion

CCCCNC(=O)NS(=O)(=O)c1ccc(C)cc1 [tolbutamide]
insulin secretion in response to agonists (secretagogues) [1]: stimulated insulin secretion

LIF: growth factor that prevents differentiation of ES cells; glycosylated 58 kDa protein of 179 amino acids
PDX-1 positive cells / pancreatic precursor cells (ES cell cultures; [2]): negatively regulates; also recorded: Only few
expression of EN-1 / midbrain precursor cells (En-1+ cells) (ES cell cultures; [2]): efficiently enhances; also recorded: increases
EN-1 positive cells, share of total ES cell-derived cell population (ES cell cultures; at stage 4, LIF present at stage 2): up to 80%
yield of neurons / neuronal (TuJ1+) population (ES cell cultures; at stage 5, LIF at stage 2 (EB formation)): increased
astrocytic (GFAP+) population (ES cell cultures; day 8 in stage 5, LIF at stage 2 (EB formation)): decreases
